Where a SMILES comes first, the peptide text is derived from it.
Experiments:
Plasmodium falciparum = test: Antimalarial activity against chloroquine-sensitive Plasmodium falciparum 3D7 infected in erythrocytes by Giemsa-stained blood smears under microscopy; format: functional, organism-based
HEK-293T = test: Cytotoxicity against human HEK293T cells at 0.001 to 100 uM after 48 hrs by MTT assay; format: cell-based

Molecule	IC50 (Plasmodium falciparum)	Activity (HEK-293T)
CC[C@H](C)[C@@H]1NC(=O)CNC(=O)[C@H](CC(C)C)NC(=O)[C@H]([C@@H](C)CC)NC(=O)[C@H]([C@@H](C)CC)NC(=O)[C@H](CO)NC(=O)CNC(=O)[C@H](CC(C)C)NC1=O (cyclo(GILGSIIL))	42 µM	Non-toxic
CC[C@H](C)[C@@H]1NC(=O)CNC(=O)[C@H](CC(C)C)NC(=O)[C@H](CC(C)C)NC(=O)[C@H]([C@@H](C)CC)NC(=O)[C@@H]2CCCN2C(=O)[C@H](CO)NC(=O)CNC(=O)[C@H](CC(C)C)NC1=O (cyclo(GILGSPILL))	10000 µM	
H-ILGSIILG-OH	519 µM	Non-toxic

Now those with a lower IC50 (Plasmodium falciparum), led by results:

IC50 (Plasmodium falciparum)	Molecule	Activity (HEK-293T)
16 µM	CC[C@H](C)[C@@H]1NC(=O)[C@H]([C@@H](C)O)NC(=O)CNC(=O)[C@H](Cc2ccccc2)NC(=O)[C@H](C(C)C)NC(=O)CNC(=O)[C@H](CC(C)C)NC1=O (cyclo(FGTILGV))	
9 µM	CC[C@H](C)[C@@H]1NC(=O)[C@H](C)NC(=O)[C@H](CC(C)C)NC(=O)[C@H]([C@@H](C)CC)NC(=O)[C@@H]2CCCN2C(=O)[C@H]([C@@H](C)CC)NC(=O)CNC(=O)[C@H](CCSC)NC1=O (cyclo(AIMGIPIL))	
2 µM	C[C@@H](O)[C@@H]1NC(=O)CNC(=O)[C@H](Cc2ccccc2)NC(=O)[C@H](Cc2ccccc2)NC(=O)CNC(=O)[C@H](Cc2ccccc2)NC(=O)[C@H](Cc2ccccc2)NC1=O (cyclo(FFGFFGT))	

Reference: ChEMBL document CHEMBL3576762, “Ribifolin, an orbitide from Jatropha ribifolia, and its potential antimalarial activity” (J Nat Prod, 2015)
